Assay: xn = mol fraction of the nth substance listed
Conditions: 101 kPa, Liquid; for speed of sound: Linear variable-path acoustic interferometer; for mass density: Vibrating tube method; for viscosity: dual vibrating plate viscometer, AandD Co. Ltd Model SV-10

CC[NH2+]CC.O=S(=O)([O-])O [diethylammonium hydrogen sulfate] + CN1CCCC1=O
Conditions	mass density, 298.15 K [kg/m3]	mass density, 303.15 K [kg/m3]	speed of sound, 298.15 K [m/s]	speed of sound, 303.15 K [m/s]	viscosity, 298.15 K [mPa·s]	viscosity, 303.15 K [mPa·s]
x1 = 0.016	1050.6	1037.47	1559	1551	2.45	–
x1 = 0.0347	1067.85	1054.26	1555	1547	3.33	0.95
x1 = 0.092	1113.77	1095.4	1539	1536	9.94	7.28
x1 = 0.1316	1140.71	1122.07	1534	1529	15.78	12.27
x1 = 0.1916	1176.12	1155.56	1529	1523	27.2	21.6
x1 = 0.2992	1222.46	1196	1518	1515	49.04	37.85
x1 = 0.3455	1237.11	1207.13	1513	1510	59.35	45.88
x1 = 0.4175	1253.31	1219.69	1508	1505	73.04	56.62
x1 = 0.5442	1269.42	1228.51	1495	1491	92.75	72.49
x1 = 0.6829	1275.63	1229.8	1481	1474	101.4	79.75
x1 = 0.8359	1277.72	1232.02	1458	1446	87.14	69.13
x1 = 0.9342	1282.39	1235.49	1440	1423	58.7	48.37
x1 = 0.9684	1281.99	1237.36	1434	1415	46.45	35.95
x1 = 1	1283.95	1239.74	1432	1408	34.1	–

— the NIST ThermoML archive (doi:10.1016/j.jct.2012.03.034)
